Data as given in patent US20040143025A1, “Carbon monoxide generating compunds for treatment of vascular, inflammatory and immune disorders” (priority 2002, published 2004).

What was measured:
[1] = tested on: allogeneic OLTs; assay: In vivo detection of apoptosis in OLTs; design: species or system rat; details: day 10 post-transplant
Description: In vivo detection of apoptosis. A commercial in situ histochemical assay (Klenow-FragEL, Oncogene Research Products, Cambridge, Mass.) was performed to detect the DNA fragmentation characteristic of apoptosis in formalin-fixed paraffin-embedded tissue sections. In this assay, Kienow binds to exposed ends of DNA fragments generated in response to apoptotic signals and catalyzes the template-dependent addition of biotin-labeled and unlabeled deoxynucleotides. Biotinylated nucleotides are detected using a streptavidin-horse radish peroxidase (HRP) conjugate. Diaminobenzidine reacts with the labeled sample to generate an insoluble colored substrate at the site of DNA fragmentation. Counterstaining with methyl green aids in the morphological evaluation and characterization of normal and apoptotic cells. The results were scored semi-quantitatively by averaging the number of apoptotic cells per microscopic field at 200× magnification. Six fields were evaluated per tissue sample. All data are expressed as mean±SD.

[2] = Systemic COHb and blood chemistry after oral methylene chloride in rats; type: in vivo, rat; details: MC-treated rats, 500 mg/kg daily
Description: MC (Sigma, St. Louis, Mo.) was diluted in olive oil and administered orally on a daily basis (from day 0 to 30) at 500 mg/kg. This dose saturates the cytochrome P-450 oxidative system, and yields maximal COHb values of 10% COHb in venous or aortic blood. Gargas et al. and Andersen et al., supra; Wirkner et al., Toxicol. App. PharmacoL 143:83-88 (1997). […] Id. […] Kirschman, Fd. Chem. Toxic. 24:943-49 (1986); Dhillon and Von Burg, Toxicology Update 1:329-35 (1995). MC may show liver and central nervous system toxicity at higher doses and/or longer exposures. Id. COHb levels were evaluated in heparinized venous blood using the VOXimeter sensor (A-VOX Systems, San Antonio, Tex.) and expressed as the percentage of total hemoglobin. Bicarbonates, soluble CO2, total CO2 and pH were measured using standard clinical biochemistry techniques (Laboratory of Biochemistry, University Hospital of Nantes).

[3] = tested on: anti-MHC class I alloantibodies; assay: Detection of alloantibodies (cytofluorimetry); type: in vivo, rat; details: vs recipients of control adenovirus-treated aortas
Description: Detection of alloantibodies. Donor LEW.1W splenocyts were incubated with heat-inactivated serum from ELW.1A recipients, serially diluted in PBS. Cells were then washed and simultaneously incubated with FITC-coupled donkey anti-rat IgG (Jackson Laboratories) and with a biotin-labeled anti-B cell Mab (clone OX33, ECACC). After washing, cells were incubated with phycoerythrin-coupled streptavidin. Serum levels of alloantibodies were determined by cytofluorimetry (FACScalibur, Becton Dickinson, San Jose, Calif.) and reported as the mean channel fluorescence (MCF) at each dilution of serum. A predominance of anti-donor MHC class II alloantibodies, as previously described in certain tolerance models (Cuturi et al., Eur. J. Immunol. 24:1627-31 (1994)), is detected by the binding of alloantibodies only to OX33 positive cells (B cells). The presence of anti-MHC class I alloantibodies results in labeling of OX33 negative (T cells) and positive cells. MCF of alloantibody binding to OX33 negative cells indicated the level of anti-MHC I alloantibodies.

[4] = tested on: C57BL/6 ApoE (−/−) mice; assay: Carotid wire injury in atherogenic ApoE-/- mouse, neointimal formation; type: in vivo; details: day -1 to day 28
Description: The effects of CO generated though metabolic degradation of methylene chloride are investigated in an atherosclerotic mouse carotid intimal denudation model. Female C57BL/6 ApoE (−/−) mice (10-12 weeks old, n=12/group) are fed Western diet for 1 week prior to injury and 4 weeks after injury. On day 0 mice are anesthesized with ip injection of ketamine (80 mg/kg) & xylazine (5 mg/kg). The left carotid artery is isolated and two ligatures (6-O silk) are placed around the external carotid artery, ligatures are also placed around the common and internal carotid arteries. After the distal external carotid ligatures are tied, the carotid is incised with Vannas scissors proximal to the ligature. A curved flexible wire (0.35 mm/0.014 in diameter) is introduced into the external carotid and passed three times along the wall of the common carotid while being rotated. Upon removal of the wire the proximal carotid ligature is tied and the skin is reopposed with 6-O silk.
Methylene chloride (25, 100, 400 mg/kg/day) is administered intraperitoneally or orally starting on day-1 until day 28. A control group is treated with vehicle. On day 28 animals are sacrificed and after incision, the right and left common, external, and internal carotids are ligated. After sternotomy, common carotids are dissected further to the aortic arch. A 27-gauge needle is placed in the left ventricle and a systemic perfusion with phosphate buffered paraformaldehyde (100 mM, 4% wt/vol, pH 7.3) is performed at 100 mmHg via the left ventricular cannula. Subsequently, the common, internal and external carotid arteries are transected and removed. Specimens are dehydrated in ethanol and xylene, and embedded in paraffin. Tissue sections are stained and VSMC proliferation is assessed microscopically by histomorphometry. Methylene chloride therapy at 400, 100, and 25 mg/kg/day inhibits neointimal formation by 90%, 75% and 30% respectively.

ClCCl [methylene chloride]
TUNEL+ cells/field in allogeneic OLTs [1]: 4.5±2.3
behavior, food consumption, gross necropsy [2]: normal behavior, food consumption and no particular gross necropsy alterations
levels of anti-MHC class I alloantibodies [3]: no statistical differences
inhibition of neointimal formation ([4]; 25 mg/kg/day): 30%
inhibition of neointimal formation ([4]; 100 mg/kg/day): 75%
inhibition of neointimal formation ([4]; 400 mg/kg/day): 90%
